# Data from ChEMBL document CHEMBL4000216, “Lignan derivatives from Selaginella tamariscina and their nitric oxide inhibitory effects in LPS-stimulated RAW 264.7 cells” (Bioorg Med Chem Lett, 2017).
# Calls of active or inactive are those of the source. The rule behind the calls is not given here.
# Assays:
# RAW264.7 [1] = assay: Cytotoxicity against mouse RAW264.7 cells assessed as reduction in cell viability at 3 to 60 uM after 24 hrs by MTT assay; assay type: cell-based; conditions: raw264.7, 24 h
# RAW264.7 [2] = assay: Inhibition of LPS-induced NO production in mouse RAW264.7 cells at 3 to 60 uM preincubated for 1 hr followed by LPS stimulation for 24 hrs by Griess assay; assay type: functional, cell-based
# RAW264.7 [3] = assay: Inhibition of LPS-induced NO production in mouse RAW264.7 cells preincubated for 1 hr followed by LPS stimulation for 24 hrs by Griess assay; assay type: functional, cell-based
IC50 (RAW264.7 [3]) [µM],SMILES,Activity (RAW264.7 [1]),inhibition (RAW264.7 [2])
–,COc1cc([C@H]2OC[C@H]3[C@@H]2CO[C@@H]3c2cc(OC)c(O[C@@H]3O[C@H](CO)[C@@H](O)[C@H](O)[C@H]3O)c(OC)c2)cc(OC)c1O[C@@H]1O[C@H](CO)[C@@H](O)[C@H](O)[C@H]1O [LIRIODENDRIN],Non-Toxic,inactive
55.8,COc1cc([C@@H]2Oc3c(OC)cc(C(C)=O)cc3[C@H]2CO[C@@H]2O[C@H](CO)[C@@H](O)[C@H](O)[C@H]2O)cc(OC)c1O,Non-Toxic,–
–,COc1cc([C@@H]2Oc3c(OC)cc(C(C)=O)cc3[C@H]2CO)cc(OC)c1O[C@@H]1O[C@H](CO[C@@H]2O[C@H](CO)[C@@H](O)[C@H](O)[C@H]2O)[C@@H](O)[C@H](O)[C@H]1O,Non-Toxic,inactive
40.9,COc1cc(C[C@@H](CO[C@@H]2O[C@H](CO)[C@@H](O)[C@H](O)[C@H]2O)c2cc(C(C)=O)cc(OC)c2O)cc(OC)c1O,Non-Toxic,–
32.3,COc1cc([C@@H]2Oc3c(OC)cc(C(C)=O)cc3[C@H]2CO)cc(OC)c1O,Non-Toxic,–
32.4,COc1cc([C@@H]2Oc3c(OC)cc(C(C)=O)cc3[C@H]2CO)cc(OC)c1O[C@@H]1O[C@H](CO)[C@@H](O)[C@H](O)[C@H]1O,Non-Toxic,–
9.3,O=C1/C(=C/c2ccc(O)c(O)c2)COc2cc(O)ccc21 [SAPPANONE A],–,–
